Experimental data: patent US4764515A, “Antitussive and central sedative composition of d-isomer of 3-(4-phenyl-1-piperazinyl)-1,2-propanediol” (priority 1983, dated 1988)
“Also recorded” adds a separate entry of the source. Where two headings read alike, the source gives them in different places.

Legend:
oedema by carrageenin = experiment: Carrageenin oedema test in the rat (anti-inflammatory activity); type: in vivo; conditions: po, p.o. 1 h before phlogistic agent, C.L. 95%
Description: (§1) Screening for anti-inflammatory activity has been carried out employing the established carrageenin and ovoalbumin oedema tests in the rat, according to the methods described by C. A. Winter et al., Proc. Soc. Exp. Biol. Med., 111, 544, 1962 and Turne in "Screening Methods in Pharmacology" Acad. Press N.Y., cpt. 14, p. 164, 1965, respectively.
(§2) The compounds under exam have been administered by the oral route one hour before the injection of the phlogistic agent.

oedema by ovoalbumin = experiment: Ovoalbumin oedema test in the rat (anti-inflammatory activity); type: in vivo; conditions: po, p.o. 1 h before phlogistic agent, C.L. 95%
Description: as §1, §2

[1] = test system: electrical stimulation of the vagus nerv; experiment: Antitussive activity in the guinea pig after electrical stimulation of the vagus nerve; type: in vivo; conditions: Cavia porcellus, iv, intravenously 5 min before electric stimulation, C.F. 95%, read-out: DE50 Electric stimulus (antitussive effect)
Description: (§3) The results of the antitussive activity tests, carried out in the guinea pig after electrical stimulation of the vagus nerv and exposure for 5 minutes to a 5% citric acid aerosol according to the methods of R. M. Piekirning et al., Arzn.
(§4) The compounds under exam have been administered intravenously 5 minutes before the electric stimulation and orally 60 minutes before the citric acid aerosol.

5% citric acid aerosol = experiment: Antitussive activity in the guinea pig after exposure to 5% citric acid aerosol; type: in vivo; conditions: Cavia porcellus, po, read-out: DE50 5% Citric acid (antitussive effect)
Central Nervous System [2] = experiment: Influence on the sleeping time induced by barbiturates in the mouse (CNS activity); type: in vivo; conditions: 30 min before secobarbital 35 mg/kg i.p., mean ± SE, controls 22.58 ± 1.14
Description: (§5) Tests have been carried out to determine the CNS activity, by evaluating the influence on the sleeping time induced by barbiturates in the mouse, according to the method of F. M. Berger "Methods in Drug Evaluation" Proc. Int. Symp. Milan, September 1965, North Holland Pubbl. Co., and by recording the electroencephalographic and electromiographic curves in the rat with chronically implanted electrodes, calculating the time (in seconds) in the awakening and sleeping condition (including synchronized and unsynchronized sleep).
(§6) The compounds under exam have been administered orally, in the sleeping time test 30 minutes before the i.p. injection of 35 mg/kg of secobarbital, while in the electroencephalographic test at the beginning of recording.

Acute toxicity, mouse = conditions: in vivo, 14 days from administration, C.L. 95%, read-out: DL50
Description: (§7) Acute toxicity (at 14 days from the admi-
(§8) nistration) of (±) racemic dropropizine
(§9) (+) dextrorotatory isomer and (-) laevorotatory isomer

Acute toxicity, rat = conditions: in vivo, 14 days from administration, C.L. 95%, read-out: DL50
Description: as §7, §8, §9

Central Nervous System [3] = experiment: Electroencephalographic and electromiographic recording in the rat with chronically implanted electrodes (CNS activity); type: in vivo; conditions: mean ± SE, controls 4.86 ± 0.60
Description: as §5, §6

antitussive activity = experiment: Antitussive activity (overall statement); type: in vivo, guinea pig; conditions: in words; versus racemic mixture; listed as laevorotatory isomer
Description: as §3, §4

[4] = test system: antiinflammatory activity; experiment: Antiinflammatory activity (overall statement); type: in vivo, rat; conditions: in words
Description: as §1, §2

[5] = 3 h, 3th hour, read-out: DE50 Oedema by carrageenin 3th hour
[6] = 6 h, 6th hour, read-out: DE50 Oedema by carrageenin 6th hour
[7] = 1st hour, read-out: DE50 Oedema by carrageenin 1st hour
[8] = 3 h, 3th hour, read-out: DE50 Oedema by ovoalbumin 3th hour
[9] = 6 h, 6th hour, read-out: DE50 Oedema by ovoalbumin 6th hour
[10] = 1st hour, read-out: DE50 Oedema by ovoalbumin 1st hour
[11] = guinea pig, orally 60 min before citric acid aerosol (5 min exposure), C.F. 95%

| Structure (SMILES) | ED50 (oedema by carrageenin; [5]) [mg/kg] | ED50 (oedema by carrageenin; [6]) [mg/kg] | ED50 (oedema by carrageenin; [7]) [mg/kg] | ED50 (oedema by ovoalbumin; [8]) [mg/kg] | ED50 (oedema by ovoalbumin; [9]) [mg/kg] | ED50 (oedema by ovoalbumin; [10]) [mg/kg] | ED50 [1] [mg/kg] | ED50 (5% citric acid aerosol; [11]) [mg/kg] | Duration of the sleeping time induced by barbiturates (Central Nervous System [2]; 50 mg/kg p.o.) [min] | Duration of the sleeping time induced by barbiturates (Central Nervous System [2]; 100 mg/kg p.o.) [min] | Duration of the sleeping time induced by barbiturates (Central Nervous System [2]; 200 mg/kg p.o.) [min] | LD50 at 336 h (Acute toxicity, mouse; ip) [mg/kg] | LD50 at 336 h (Acute toxicity, mouse; po) [mg/kg] | LD50 at 336 h (Acute toxicity, rat; ip) [mg/kg] | LD50 at 336 h (Acute toxicity, rat; po) [mg/kg] | Time spent in the sleeping condition (Central Nervous System [3]; 25 mg/kg p.o.) [s] | Time spent in the sleeping condition (Central Nervous System [3]; 50 mg/kg p.o.) [s] | Time spent in the sleeping condition (Central Nervous System [3]; 100 mg/kg p.o.) [s] | other results |
| --- | --- | --- | --- | --- | --- | --- | --- | --- | --- | --- | --- | --- | --- | --- | --- | --- | --- | --- | --- |
| OCC(O)CN1CCN(c2ccccc2)CC1 (racemic) [(±), 3-(4-phenyl-1-piperazinyl)-1,2-propanediol] | 77.9 | 117 | 39 | 28.5 | 37.1 | 23.6 | 11.7 | 117 | 118.83 ± 25.69 | 132.33 ± 13.16 | 134.16 ± 17.55 | 340 | 900 | 393 | 607 |  |  |  |  |
| OC[C@H](O)CN1CCN(c2ccccc2)CC1 [(+), d-isomer of 3-(4-phenyl-1-piperazinyl)-1,2-propanediol] | 80.5 | 69.7 | 43.9 |  |  |  | 23.5 | 141 |  |  |  | 319 | 872 | 363 | 721 | 6.18 ± 0.72 | 12.36 ± 0.9 | 28.92 ± 1.7 |  |
| OC[C@@H](O)CN1CCN(c2ccccc2)CC1 [(-), (-)-dropropizine] | 212 | 241 | 233 | 72.2 | 121 | 55.6 | 13.5 | 151 | 29.5 ± 2.59 | 54.4 ± 7.36 | 128.83 ± 17.14 | 408 | 1290 | 401 | 887 | 5.8 ± 0.84 | 5.7 ± 0.48 | 13.68 ± 1.80 | antitussive activity (antitussive activity): unchanged antitussive and antiinflammatory activity; also recorded: same antitussive activity as the racemic mixture; antiinflammatory activity [4]: unchanged antitussive and antiinflammatory activity |
| COc1ccc2c3c1O[C@H]1[C@@H](O)C=C[C@H]4[C@@H](C2)N(C)CC[C@@]341 [Codeine, codeine, reference compound] |  |  |  |  |  |  |  |  |  |  |  |  |  |  |  |  |  |  | ED50 (5% citric acid aerosol): 65.1 mg/kg |
